test system: influenza A virus A/Aichi/2/68 (H3N2) on MDCK cells; assay: Cytopathic effect (CPE) assay; format: cell-based; conditions: not given

Q: How did the “CPE result in words” value turn out when O=C(NCc1ccccc1)c1nc(CC2(c3ccccc3)CCCC2)nc(O)c1O was run?
A: Its value is “inactive”.

Q: O=C(O)c1nc(Cc2ccccc2-c2ccccc2)nc(O)c1O was tested. Which “CPE result in words” value did it give?
A: The value was “inactive”.

Q: How did the “CPE result in words” value turn out when O=C(NCc1ccccc1)c1nc(Cc2ccccc2-c2ccccc2)nc(O)c1O was run?
A: The value was “inactive”.

Q: With CNC(=O)c1nc(Cc2ccccc2-c2ccccc2)nc(O)c1O as the molecule, how does the “CPE result in words” value read?
A: Its value is “inactive”.

Q: Which “CPE result in words” value does the source give for O=C(O)c1nc(CC(c2ccccc2)c2ccccc2)nc(O)c1O here?
A: Its value is “inactive”.

Q: Which “CPE result in words” value does the source give for O=C(O)c1nc(Cc2ccc(F)cc2Br)nc(O)c1O here?
A: The value was “inactive”.

Q: How did the “CPE result in words” value turn out when COC(=O)c1nc(Cc2ccccc2-c2ccccc2C)nc(O)c1O was run?
A: Its value is “inactive”.

Q: How did the “CPE result in words” value turn out when CCOC(=O)c1nc(Cc2cncn2Cc2ccccc2)nc(O)c1O was run?
A: Its value is “inactive”.

Q: Which “CPE result in words” value does the source give for COC(=O)c1nc(Cc2ccc(F)cc2Br)nc(O)c1O here?
A: The value was “inactive”.

Q: Which “CPE result in words” value does the source give for NC(=O)c1nc(Cc2ccc(F)cc2Br)nc(O)c1O here?
A: The value was “inactive”.

Q: For CCOC(=O)c1nc(CC2CCCCC2)nc(O)c1O, which “CPE result in words” value is on record?
A: Its value is “inactive”.

Q: For COC(=O)c1nc(Cc2ccccc2Br)nc(O)c1OC(C)=O, which “CPE result in words” value is on record?
A: The value was “inactive”.

Q: For CNC(=O)c1nc(Cc2ccccc2Br)nc(O)c1O, which “CPE result in words” value is on record?
A: The value was “inactive”.

Q: Which “CPE result in words” value does the source give for Cc1cccc(-c2ccccc2Cc2nc(O)c(O)c(C(=O)O)n2)c1 here?
A: Its value is “inactive”.

Q: Which “CPE result in words” value does the source give for Cc1ccc(C)c(-c2ccccc2Cc2nc(O)c(O)c(C(=O)O)n2)c1 here?
A: The value was “inactive”.

Q: For CNC(=O)c1nc(CC2CCCCC2)nc(O)c1O, which “CPE result in words” value is on record?
A: The value was “inactive”.

Q: Which “CPE result in words” value does the source give for CNC(=O)c1nc(Cc2ccccc2-c2cc(C)ccc2C)nc(O)c1O here?
A: The value was “inactive”.

Q: How did the “CPE result in words” value turn out when O=C(NCc1ccc(Cl)cc1)c1nc(Cc2ccccc2Br)nc(O)c1O was run?
A: Its value is “inactive”.

Q: O=C(O)c1nc(CC2CCCCC2)nc(O)c1O was tested. Which “CPE result in words” value did it give?
A: The value was “inactive”.

Q: How did the “CPE result in words” value turn out when O=C(O)c1nc(Cc2ccccc2Br)nc(O)c1O was run?
A: Its value is “inactive”.

Q: With Cc1ccccc1Cc1nc(O)c(O)c(C(=O)O)n1 as the molecule, how does the “CPE result in words” value read?
A: The value was “inactive”.

Q: Which “CPE result in words” value does the source give for O=C(NCc1ccc(F)cc1)c1nc(Cc2ccccc2Br)nc(O)c1O here?
A: The value was “inactive”.

Q: With O=C(NCc1ccc(Cl)cc1)c1nc(Cc2ccccc2-c2ccccc2)nc(O)c1O as the molecule, how does the “CPE result in words” value read?
A: The value was “inactive”.

Q: Cc1ccccc1-c1ccccc1Cc1nc(O)c(O)c(C(=O)O)n1 was tested. Which “CPE result in words” value did it give?
A: The value was “inactive”.

Q: With O=C(O)c1nc(Cc2cc(C(F)(F)F)ccc2Br)nc(O)c1O as the molecule, how does the “CPE result in words” value read?
A: The value was “inactive”.

Q: How did the “CPE result in words” value turn out when CNC(=O)c1nc(Cc2ccccc2-c2ccccc2)n(C)c(=O)c1O was run?
A: The value was “inactive”.

Q: How did the “CPE result in words” value turn out when Cn1c(CC2(c3ccccc3)CCCC2)nc(C(=O)O)c(O)c1=O was run?
A: Its value is “inactive”.

Q: Cn1c(Cc2ccccc2-c2ccccc2)nc(C(=O)O)c(O)c1=O was tested. Which “CPE result in words” value did it give?
A: Its value is “inactive”.

Q: For Cn1c(Cc2ccccc2-c2ccccc2)nc(C(N)=O)c(O)c1=O, which “CPE result in words” value is on record?
A: Its value is “inactive”.

Q: CC(C)NC(=O)c1nc(Cc2ccccc2-c2ccccc2)n(C)c(=O)c1O was tested. Which “CPE result in words” value did it give?
A: Its value is “inactive”.

Q: CNC(=O)c1nc(NS(=O)(=O)Cc2cccc(C)c2)n(C)c(=O)c1O was tested. Which “CPE result in words” value did it give?
A: Its value is “inactive”.

Q: With COC(=O)c1nc(CC2CCCCC2)n(C)c(=O)c1O as the molecule, how does the “CPE result in words” value read?
A: Its value is “inactive”.

Q: CNC(=O)c1nc(NS(=O)(=O)Cc2ccc(C)cc2)n(C)c(=O)c1O was tested. Which “CPE result in words” value did it give?
A: Its value is “inactive”.

Q: Which “CPE result in words” value does the source give for Cn1c(NS(=O)(=O)Cc2ccc(Cl)cc2)nc(C(=O)O)c(O)c1=O here?
A: Its value is “inactive”.

Q: O=C(O)c1c(O)c(=O)nc(Cc2ccccc2)n1Cc1ccccc1 was tested. Which “CPE result in words” value did it give?
A: Its value is “inactive”.

Q: How did the “CPE result in words” value turn out when O=C(O)c1c(O)c(=O)nc(Cc2ccccc2Br)n1Cc1ccccc1 was run?
A: The value was “inactive”.

Q: For CNC(=O)c1nc(NS(=O)(=O)Cc2ccccc2)n(C)c(=O)c1O, which “CPE result in words” value is on record?
A: The value was “inactive”.

Q: CNC(=O)c1nc(NS(=O)(=O)Cc2ccc(Cl)cc2)n(C)c(=O)c1O was tested. Which “CPE result in words” value did it give?
A: Its value is “inactive”.

Q: COC(=O)c1c(O)c(=O)nc(Cc2ccccc2)n1Cc1ccccc1 was tested. Which “CPE result in words” value did it give?
A: The value was “inactive”.

same assay, conditions: Influenza A virus, H3N2, MDCK, in Canis lupus familiaris, 48 h

Q: COC(=O)c1nc(CC2(c3ccccc3)CCCC2)nc(O)c1O was tested. Which IC50 did it give?
A: Its IC50 is 12 µM.

Q: Which IC50 does the source give for NC(=O)c1nc(CC2(c3ccccc3)CCCC2)nc(O)c1O here?
A: The IC50 was 42 µM.

Q: For O=C(O)c1nc(CC2(c3ccccc3)CCCC2)nc(O)c1O, which IC50 is on record?
A: Its IC50 is 49 µM.

Q: Which IC50 does the source give for CNC(=O)c1nc(CC2(c3ccccc3)CCCC2)nc(O)c1O here?
A: Its IC50 is 22 µM.

Q: For CC(C)NC(=O)c1nc(Cc2ccccc2-c2ccccc2)nc(O)c1O, which IC50 is on record?
A: The IC50 was 23 µM.

Q: Which IC50 does the source give for O=C(NCc1ccc(F)cc1)c1nc(Cc2ccccc2-c2ccccc2)nc(O)c1O here?
A: The IC50 was 10 µM.

Q: How did the IC50 turn out when O=C(NCCc1ccccc1)c1nc(Cc2ccccc2-c2ccccc2)nc(O)c1O was run?
A: The IC50 was 8 µM.

Q: O=C(c1nc(Cc2ccccc2-c2ccccc2)nc(O)c1O)N1CCCC1 was tested. Which IC50 did it give?
A: Its IC50 is 89 µM.

Q: CCOC(=O)c1nc(Cc2ccccc2-c2cc(C)ccc2C)nc(O)c1O was tested. Which IC50 did it give?
A: The IC50 was 9.1 µM.

Q: Which IC50 does the source give for COC(=O)c1nc(Cc2ccccc2-c2cc(C)ccc2C)nc(O)c1O here?
A: The IC50 was 16 µM.

Q: For Cc1ccc(C)c(-c2ccccc2Cc2nc(O)c(O)c(C(=O)OC(C)(C)C)n2)c1, which IC50 is on record?
A: The IC50 was 0.11 µM.

Q: With CNC(=O)c1nc(CC2(c3ccccc3)CCCC2)n(C)c(=O)c1O as the molecule, how does the IC50 read?
A: Its IC50 is 11 µM.

Q: How did the IC50 turn out when COC(=O)c1c(O)c(=O)nc(Cc2ccccc2Br)n1Cc1ccccc1 was run?
A: Its IC50 is 34 µM.

Reference: patent US8921388B2, “Dihydroxypyrimidine carbonic acid derivatives and their use in the treatment, amelioration or prevention of a viral disease” (priority 2012, dated 2014)
